From PubChem BioAssay (NCI)
Several values for one entry are separate records, joined by “and”; a condition that tells them apart may be missing. Identical values can stand only once.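 Cultured in 96-well plates, cells were exposed to test compound for 48 hours across five concentrations. At the GI50, growth is halved. TGI: concentration producing complete growth inhibition.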

Test system: MDA-MB-468 breast
Assay: DTP human tumour cell line panel, 48 h

| Structure (SMILES) | GI50 | TGI |
| --- | --- | --- |
| CN(C)Cc1ccc(C(=O)Nc2ccc3ncnc(Nc4ccc(Oc5cccc(F)c5)c(Cl)c4)c3c2)cc1 | 1.29 µM | 2.79 µM |
| CCOC(=O)Oc1c(OC)cc(C(=O)O[C@@H]2C[C@@H]3CN4CCc5c([nH]c6cc(OC)ccc56)[C@H]4C[C@@H]3[C@H](C(=O)OC)[C@H]2OC)cc1OC | 8.13 µM | 23.3 µM |
| Nc1nc(-c2cccc([N+](=O)[O-])c2)c(N=Nc2ccc(Br)cc2)s1 | 11.1 µM | 34.2 µM |
| CC(NNC(=S)N1CCCCCC1)c1ccc2ccccc2n1 (stereo not drawn) | 0.603 µM | 28.1 µM |
| Cc1ccc2c(N)c(C(=O)N[C@H]3CCc4cc(N5CC6CCC(C5)N6)ccc4C3)sc2n1 | 0.579 µM | 2.07 µM |
| COc1ccc(-c2cn[nH]c2-c2cc(OC)c(OC)c(OC)c2)cc1N | < 0.01 µM and 0.0314 µM | > 100 µM |
| C[C@]12CC[C@@H]3c4ccc(O)cc4CC[C@H]3[C@@H]1CC[C@@H]2NS(=O)(=O)Cc1ccc(Cl)cc1 | 3.63 µM | 16.7 µM |
| N=C(N)CCCCCCCCC(=N)N | 10.1 µM | > 100 µM |
| O=C(NOCC1CC1)c1ccc(F)c(F)c1Nc1ccc(I)cc1Cl | 2.67 µM | 8.21 µM |
| O=C(Nc1cccc(-c2nc(-c3ccc(NC(=O)c4cccs4)cc3Cl)no2)c1)Nc1ccc(NC(=O)C2CC2)c(C(F)(F)F)c1 | 0.181 µM | 0.394 µM |
| O=C(Nc1ccc(Cl)cc1)c1cc2ccccc2cc1O | 1.61 µM | 7.03 µM |
| C#C[C@]1(O)CC[C@H]2[C@@H]3CC=C4c5sc(Nc6cc(Cl)ccc6OC)nc5CC[C@]4(C)[C@H]3CC[C@@]21C | 1.69 µM | 4.65 µM |
| Cc1ccc2c(=O)c3cccc(CC(=O)O)c3oc2c1C | > 100 µM | > 100 µM |
| O=C(NC(=S)Nc1ccc(Cl)cc1)c1ccccc1 | 2.56 µM | > 85.3 µM |
| CNC(=O)c1cccc(-c2ccc3c(N4CCOC[C@@H]4C)nc(N4CCOC[C@@H]4C)nc3n2)c1 | 0.0436 µM and 0.116 µM and 0.0681 µM | 0.473 µM and 0.558 µM and 0.499 µM |
| O=C(Oc1ccc(CCl)cc1)c1ccccc1 | 0.142 µM | 0.325 µM |
| C=C1C(=O)O[C@H]2[C@H]1CC/C(Cn1cc(-c3ccccc3)nn1)=C\CC[C@@]1(C)O[C@@H]21 | 0.953 µM | 1.97 µM |
| Cc1nc2cccc(NCc3ccc(C(=O)NO)cc3)c2c(=O)n1-c1ccccc1 | 1.48 µM | 3.1 µM |
| Cc1cc2c(F)c(Oc3ncnn4cc(OC[C@@H](C)OC(=O)[C@H](C)N)c(C)c34)ccc2[nH]1 | 9.23 µM | 21.8 µM |
| O=C(Nc1ncc(Cc2ccccc2Cl)s1)c1ccc2c(c1)OCCO2 | 0.462 µM | > 30.6 µM |
| O=C1C=Cc2ccccc2/C1=C/c1[nH]c(=O)[nH]c1O | 2.66 µM | 7.63 µM |
| CC1(C)N=C(N)N=C(N)N1c1cc(Cl)ccc1Cl | 28.6 µM | > 100 µM |
| CCC1=Cc2c(OC)cccc2OC12C=Cc1c(OC)cccc1O2 (stereo not drawn) | 0.951 µM | > 100 µM |
| COc1cc(/C=C/C(=O)c2ccc(Cl)cc2)ccc1OS(=O)(=O)c1ccc(C)cc1 | 8.43 µM | 32.1 µM |
